As a reminder, the T/C is the ratio of treated to control. One may read the IC50 as the concentration that gives 50% inhibition. A high value points to weaker potency.

This note sets out measurements from ChEMBL document CHEMBL1150202, “Modified Taxols, 6. Preparation of Water-Soluble Prodrugs of Taxol” (J Nat Prod, 1991).

Converted amounts (≈) assume the structure as drawn.

Test [1] has as its system P388. The experiment in a line: In vivo cytotoxicity against mouse P388 cells at 20 mg/kg, ip, scheduled Q01D for 5 days relative to control. It counts as functional.
Test [2] relates to P388. The test is described as follows: In vivo cytotoxicity against mouse P388 cells at 40 mg/kg, ip, scheduled Q01D for 5 days relative to control. In kind it is functional.
In test [3] the test system is P388. The experiment in a line: In vivo cytotoxicity against mouse P388 cells at 5 mg/kg, ip, scheduled Q01D for 5 days relative to control. In kind it is functional.
The test system of test [4] is P388. The test is described as follows: In vivo cytotoxicity against mouse P388 cells at 2.5 mg/kg, ip, scheduled Q01D for 5 days relative to control. It counts as functional.
The test system of another test is B16. The experiment in a line: Cytotoxicity against mouse B16 cells grown in PRIM medium. In kind it is functional, cell-based.
For another test, the system named is A549. The test is described as follows: Cytotoxicity against human A549 cells. It counts as functional, cell-based.
For another test, the system named is HCT-116. The experiment in a line: Cytotoxicity against human HCT116 cells. It counts as functional, cell-based.
Test [5] in a line: Cytotoxicity against human A549/VP cells. In kind it is functional, cell-based.
A short description of test [6]: Cytotoxicity against human HCT/VP35 cells. In kind it is functional, cell-based.
The test system of test [7] is P388. The test is described as follows: In vivo cytotoxicity against mouse P388 cells at 10 mg/kg, ip, scheduled Q01D for 5 days relative to control. It counts as functional.
For test [8], the system named is P388. The experiment in a line: In vivo cytotoxicity against mouse P388 cells at 8 mg/kg, ip, scheduled Q01D for 5 days relative to control. In kind it is functional.
Test [9] has as its system P388. The test is described as follows: In vivo cytotoxicity against mouse P388 cells at 16 mg/kg, ip, scheduled Q01D for 5 days relative to control. In kind it is functional.
Test [10] concerns P388. The test is described as follows: In vivo cytotoxicity against mouse P388 cells at 64 mg/kg, ip, scheduled Q01D for 5 days relative to control. It counts as functional.
In test [11] the test system is P388. The experiment in a line: In vivo cytotoxicity against mouse P388 cells at 4 mg/kg, ip, scheduled Q01D for 5 days relative to control. It counts as functional.
Test [12] concerns P388. The test is described as follows: In vivo cytotoxicity against mouse P388 cells at 32 mg/kg, ip, scheduled Q01D for 5 days relative to control. In kind it is functional.
The subject of test [13] is P388. The experiment in a line: In vivo cytotoxicity against mouse P388 cells at 48 mg/kg, ip, scheduled Q01D for 5 days relative to control. In kind it is functional.
Test [14] concerns P388. The experiment in a line: In vivo cytotoxicity against mouse P388 cells at 12 mg/kg, ip, scheduled Q01D for 5 days relative to control. In kind it is functional.
In test [15] the test system is P388. The experiment in a line: In vivo cytotoxicity against mouse P388 cells at 6 mg/kg, ip, scheduled Q01D for 5 days relative to control. It counts as functional.
In test [16] the test system is P388. The experiment in a line: In vivo cytotoxicity against mouse P388 cells at 3 mg/kg, ip, scheduled Q01D for 5 days relative to control. It counts as functional.
Test [17] concerns P388. The test is described as follows: In vivo cytotoxicity against mouse P388 cells at 24 mg/kg, ip, scheduled Q01D for 5 days relative to control. In kind it is functional.

In the case of `CC(=O)O[C@H]1C(=O)[C@@]2(C)[C@H]([C@H](OC(=O)c3ccccc3)[C@]3(O)C[C@H](OC(=O)[C@H](OC(=O)CCS(=O)(=O)[O-])[C@@H](NC(=O)c4ccccc4)c4ccccc4)C(C)=C1C3(C)C)[C@]1(OC(C)=O)CO[C@@H]1C[C@@H]2O.[Na+]`, the T/C in the test on P388 [1] came to 136%; with P388 [2], 136%; in the test on P388 [3], 123%; in the test with P388 [4], 109%; with P388 [7], 127%. Besides, the IC50 with B16 was 0.02 µg/mL; in the test with A549 it was 0.4 µg/mL; in the test on HCT-116, under 0.02 µg/mL; in test [5], 0.19 µg/mL; in [6], 0.05 µg/mL.
Take `CC(=O)O[C@H]1C(=O)[C@@]2(C)[C@H]([C@H](OC(=O)c3ccccc3)[C@]3(O)C[C@H](OC(=O)[C@H](OC(=O)CCC(=O)NCCS(=O)(=O)[O-])[C@@H](NC(=O)c4ccccc4)c4ccccc4)C(C)=C1C3(C)C)[C@]1(OC(C)=O)CO[C@@H]1C[C@@H]2O.[Na+]`: the T/C in the test on P388 [8] was 114%; with P388 [9] it was 127%; in the test on P388 [10], 132%; with P388 [11], 109%; in the test on P388 [12], 136%. Besides, the IC50 with B16 is under 0.02 µg/mL; with A549, 0.09 µg/mL; in the test on HCT-116 it was under 0.02 µg/mL; in test [5], under 0.02 µg/mL; in test [6], 0.03 µg/mL.
Take `CC(=O)O[C@H]1C(=O)[C@@]2(C)[C@H]([C@H](OC(=O)c3ccccc3)[C@]3(O)C[C@H](OC(=O)[C@H](OC(=O)CCC(=O)NCCCS(=O)(=O)[O-])[C@@H](NC(=O)c4ccccc4)c4ccccc4)C(C)=C1C3(C)C)[C@]1(OC(C)=O)CO[C@@H]1C[C@@H]2O.[Na+]`: the T/C in the test on P388 [13] is given as 127%; with P388 [14], 118%; with P388 [15] it was 114%; with P388 [16] it was 109%; in the test with P388 [17], 123%. Further, the IC50 in the test with B16 was under 0.02 µg/mL; in the test with A549 it was 0.19 µg/mL; in the test on HCT-116, under 0.02 µg/mL; in test [5], 0.11 µg/mL; in [6] it was 0.04 µg/mL.
In the case of `CC(=O)O[C@H]1C(=O)[C@@]2(C)[C@H]([C@H](OC(=O)c3ccccc3)[C@]3(O)C[C@H](OC(=O)[C@H](O)[C@@H](NC(=O)c4ccccc4)c4ccccc4)C(C)=C1C3(C)C)[C@]1(OC(C)=O)CO[C@@H]1C[C@@H]2O` [PACLITAXEL], the T/C in the test on P388 [8] is 132%; in the test on P388 [9], 155%; in the test with P388 [11], 150%. In addition, the IC50 was under 0.02 µg/mL with B16; 4.79 µg/mL (≈ 5.61 µM) in the test with A549; under 0.02 µg/mL with HCT-116; under 0.02 µg/mL in [5]; under 0.02 µg/mL in test [6].
